This assay concerns the target Tyrosine-protein phosphatase non-receptor type 22 (Homo sapiens) (UniProt Q9Y2R2). Description: LYP phosphatase inhibitors, primary screen, biochemical, DiFMUP fluorescence, recombinant catalytic domain, 10 µM (AID 606).

The source made the active and inactive calls.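 How the source made its calls: active means IC50 under 40 µM in the dose-response test; inactive means IC50 of 40 µM or more, or never dose-tested.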

Chain of Tyrosine-protein phosphatase non-receptor type 22 (Homo sapiens) (Q9Y2R2 whole entry, looked up, the tested form may be a part): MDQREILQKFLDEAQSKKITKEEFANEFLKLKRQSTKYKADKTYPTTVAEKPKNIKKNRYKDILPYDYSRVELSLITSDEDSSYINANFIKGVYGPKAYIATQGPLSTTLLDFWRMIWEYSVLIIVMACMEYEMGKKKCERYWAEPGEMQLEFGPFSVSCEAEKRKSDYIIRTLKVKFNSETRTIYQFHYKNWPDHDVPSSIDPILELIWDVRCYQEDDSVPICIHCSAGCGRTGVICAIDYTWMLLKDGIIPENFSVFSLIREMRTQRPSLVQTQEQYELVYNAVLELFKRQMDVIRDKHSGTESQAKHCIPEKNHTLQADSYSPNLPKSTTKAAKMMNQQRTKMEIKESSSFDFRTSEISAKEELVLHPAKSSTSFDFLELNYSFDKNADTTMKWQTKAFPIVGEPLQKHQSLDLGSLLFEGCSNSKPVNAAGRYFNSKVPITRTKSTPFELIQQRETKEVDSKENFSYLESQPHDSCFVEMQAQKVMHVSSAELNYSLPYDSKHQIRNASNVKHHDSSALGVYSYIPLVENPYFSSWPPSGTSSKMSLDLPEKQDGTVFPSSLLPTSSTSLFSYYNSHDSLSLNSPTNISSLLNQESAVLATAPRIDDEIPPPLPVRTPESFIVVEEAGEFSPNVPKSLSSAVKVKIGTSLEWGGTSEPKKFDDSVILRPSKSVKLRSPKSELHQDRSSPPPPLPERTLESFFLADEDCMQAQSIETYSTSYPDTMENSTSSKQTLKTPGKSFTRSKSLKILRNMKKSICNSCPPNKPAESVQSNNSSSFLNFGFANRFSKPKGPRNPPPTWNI

Regarding `Oc1ccc2ccccc2c1C=NC12CN3CCN(CN(C3)C1)C2`, the IC50 is > 40 µM (inactive).

In general, IC50 refers to the midpoint of a concentration-inhibition curve.

These data come from PubChem BioAssay AID606 (Columbia University Molecular Screening Center, 2007).
